Data published in patent US6337345B1, “Insecticidal or miticidal combinations containing chlorfenapyr” (American Cyanamid Co., priority 1996, dated 2002).

Experiments:
Format in all cases: in vivo
[1] = test system: female imagines of Kanzawa spider mite (Tetranychus kanzawai kishida) which had acquired a strong resistance to chlorfenapyr; test: Miticidal effect on female imagines of chlorfenapyr-resistant Kanzawa spider mite, leaf disk spray test
Protocol: In this experiment, the miticidal effect against female imagines (adults) of Kanzawa spider mite (Tetranychus kanzawai kishida) which are registrant to chlorfenapyr is evaluated.
Round leaf disks (2 cm diameter) are cut out of a first leaf of kidney bean by a leaf punch and 4 sheets of the disks are placed on wet sanitary cotton in a plastic cup (8 cm diameter). On each leaf disk, 4 female imagines of Kanzawa spider mite (Tetranychus kanzawai kishida) which had acquired a strong resistance to chlorfenapyr are inoculated.
After the inoculation, chlorfenapyr and a compound(s) selected from group A are dispersed in water containing 200 ppm of an extender (Sorpol 3005X) and diluted such that a predetermined concentration of active ingredient is obtained. Each plastic cup is sprayed with 3.5 ml of a test solution with a rotary spray tower (Mizuho Scientific Co., Ltd.) and stored in a constant temperature chamber held at 25±1° C. (32 individuals are tested per concentration, 4−5 concentrations are evaluated per formulation, and 2 performances were repeated). Two days after treatment, the number of living and dead female imagines of Kanzawa spider mite (Tetranychus kanzawai kishida) which had acquired a strong resistance to chlorfenapyr is counted and the mortality (%) is calculated according the formula shown hereinbelow.
A co-toxicity coefficient is calculated by applying Sun and Johnson's formula (J. Econ. Ent., Vol 53, p. 887, […]) which is generally used to determine the degree of synergistic activity.
Co-toxicity coefficient=T^c [formula]
For T^c values greater than 100, the greater value indicates a stronger synergistic action. For a T^c value equal to 100, an additive action is indicated. For T^c values less than 100, the lesser value indicates a greater antagonistic action. A more detailed description of the calculation of the co-toxicity coefficient using the above-referenced Sun and Johnson formula follows.
The LC50 values of Test Compound A alone and Test Compound B alone and the LC50 value of the (A+B) mixture M is determined.
Actual toxicity index of mixture M=M^ti
Each LC50 value of effective ingredient A and effective ingredient B and the LC50 value of the mixture of A+B are used to determine the actual toxicity index as shown in the equation below. [formula]
Theoretical toxicity index of mixture M=Th.M^ti
Th.M^ti=(Toxicity index of A×%A in M+Toxicity index of B×%B in M)
Toxicity index of B=B^ti [formula]

[2] = test system: female imagines of Kanzawa spider mite (Tetranychus kanzawai kishida) which had acquired a strong resistance to chlorfenapyr; test: as above; conditions: resistant strain obtained by long artificial selection in the laboratory, compared with susceptible strain
[3] = test system: susceptible strain of Kanzawa spider mite; test: LC50 against susceptible strain of Kanzawa spider mite
Excerpt: By comparison, the LC50 value for chlorfenapyr against a susceptible strain of Kanzawa spider mite is about 5 ppm.

[4] = single test compound, chlorfenapyr-resistant strain
[5] = single test compound, chlorfenapyr-resistant strain, female imago, mortality two days after treatment, probit analysis

| Molecule | miticidal effect (in words) [1, 4] | LC50 [1, 5] [ppm] | LC50 ([1]; in vivo) [ppm] | resistance to chlorfenapyr of the resistant strain [2] [fold] | LC50 [3] |
| --- | --- | --- | --- | --- | --- |
| dinitromethylheptylphenyl crotonate [DPC] | low effects | 630 |  |  |  |
| CCOCCc1ccc(OCCNc2ncnc(CC)c2Cl)c(C)c1C [Pyrimidifen, 5-chloro-N-{2-[2,3-dimethyl-4-(2-ethoxyethyl)phenoxy]ethyl}-6-ethyl-4-pyrimidinamine] | high miticidal effect |  | 10 |  |  |
| Cc1ccc(N=CN(C)C=Nc2ccc(C)cc2C)c(C)c1 [Amitraz, 3-methyl-1,5-bis(2,4-xylyl)-1,3,5-triazapenta-1,4-diene] | low effects | 200 |  |  |  |
| CCC(C)c1cc([N+](=O)[O-])cc([N+](=O)[O-])c1OC(=O)C=C(C)C (stereo not drawn) [Binapacryl, 2,4-dinitro-6-sec-butylphenyldimethyl-acrylate] |  | 180 |  |  |  |
| CCOCn1c(-c2ccc(Cl)cc2)c(C#N)c(Br)c1C(F)(F)F [Chlorfenapyr, 4-bromo-2-(4-chloropheny)-1-(ethoxymethyl)-5-(trifuloromethyl)pyrrole-3-carbonitrile] |  | 1500 |  | ~300 | about 5 ppm |
| C/C1=C\C[C@@H]2C[C@@H](C[C@]3(CC[C@H](C)[C@@H](C)O3)O2)OC(=O)[C@@H]2CC[C@@H](O)[C@H]3OC/C(=C\C=C\[C@H](C)C1)[C@]32O (mixture of isomers) [Milbemectin] |  | 0.28 |  |  |  |
| CN(C)C(=O)SCCCCOc1ccccc1 [Fenothiocarb, S-4-phenoxybutyl-dimethylthiocarbamate] |  | 1000 |  |  |  |
| O=S(=O)(c1ccc(Cl)cc1)c1cc(Cl)c(Cl)cc1Cl [Tetradifon, 2,4,5,4′-tetrachlorodiphenyisulfone] | low miticidal effect | 4900 |  |  |  |
| CC(C)OC(=O)C(O)(c1ccc(Br)cc1)c1ccc(Br)cc1 [Phenisobromalate, isopropyl 4,4′-dibromobenzilate] | low effects | 280 |  |  |  |
| OC(c1ccc(Cl)cc1)(c1ccc(Cl)cc1)C(Cl)(Cl)Cl [Kelthane (Dicofol)] | high miticidal effect | 32 |  |  |  |
